≈ marks a conversion by molar mass, not a printed value. Read-outs that look alike come from different tables or passages of the source.
Test system: methicillin-resistant S. aureus (FPR3757)
Assay: MIC against clinical MRSA strain FPR3757 in Mueller-Hinton broth (CLSI)
Assay type: cell-based, Staphylococcus aureus
Conditions: for fold loss of potency (MIC) relative to the comparator / fold increase in potency (MIC) relative to the comparator: MRSA FPR3757 MIC ratio
Description: The first set of compounds evaluated were analogs at the C-7 and C-8 positions of the initial quinolone hit DNAC-2 since the other HTS hits identified (data not shown) were substituted at these positions (Table 1). Applicants first explored modification at the C-7 position with a small series of electron-donating and withdrawing substituents. […] However, analogs containing electron donating groups at C-7 including ethyl 7, benzyloxy 8, methoxy 9 and methylthio 10 are weakly active displaying MICs of 320-640 μg/mL indicating electron-donating substituents at C-7 are poorly tolerated. […] The C-8 position was evaluated with trifluoromethyl 4 and trifluoromethoxy 5 containing the optimal C-7 substituents. Both 4 and 5 are equipotent to the corresponding C-7 analogs 2 and 3 indicating some flexibility of the quinolone scaffold.

[1] = MRSA clinical strain FPR3757, Mueller-Hinton broth, CLSI guidelines, complete inhibition of observable growth
[2] = Staphylococcus aureus, MRSA, MRSA clinical strain FPR3757, Mueller-Hinton broth, CLSI guidelines, complete inhibition of observable growth, read-out: MIC
[3] = Staphylococcus aureus, MRSA, MRSA clinical strain FPR3757, Mueller-Hinton broth, CLSI guidelines, complete inhibition of observable growth

MIC [1]	MIC [2]	Structure (SMILES)	also measured
8 µg/mL (≈ 17.5 µM)	–	FC(F)(F)Oc1cccc(Nc2cc(C(F)(F)F)nc3c(OC(F)(F)F)cccc23)c1 [Compound 1]	–
5 µg/mL (≈ 17.8 µM)	4 to 8 µg/mL (≈ 14.2 to 28.5 µM)	O=c1cc(C(F)(F)F)[nH]c2cc(C(F)(F)F)ccc12 [Compound 2]	–
–	4 to 8 µg/mL (≈ 13.5 to 26.9 µM)	O=c1cc(C(F)(F)F)[nH]c2cc(OC(F)(F)F)ccc12 [Compound 3]	–
–	2 to 4 µg/mL (≈ 7.11 to 14.2 µM)	O=c1cc(C(F)(F)F)[nH]c2c(C(F)(F)F)cccc12 [Compound 4]	–
–	20 µg/mL (≈ 80.8 µM)	O=c1cc(C(F)(F)F)[nH]c2cc(Cl)ccc12 [Compound 6]	–
320 µg/mL (≈ 1330 µM)	320 to 640 µg/mL (≈ 1330 to 2650 µM)	CCc1ccc2c(=O)cc(C(F)(F)F)[nH]c2c1 [Compound 7]	–
640 µg/mL (≈ 2000 µM)	–	O=c1cc(C(F)(F)F)[nH]c2cc(OCc3ccccc3)ccc12 [Compound 8]	–
640 µg/mL (≈ 2630 µM)	320 to 640 µg/mL (≈ 1320 to 2630 µM)	COc1ccc2c(=O)cc(C(F)(F)F)[nH]c2c1 [Compound 9]	fold loss of potency (MIC) relative to the comparator: 80-160 fold
640 µg/mL (≈ 2470 µM)	–	CSc1ccc2c(=O)cc(C(F)(F)F)[nH]c2c1 [Compound 10]	–
–	–	FC(F)(F)c1ccc2c(Nc3ccccc3)cc(C(F)(F)F)nc2c1 [Compound 11]	MIC (Staphylococcus aureus, MRSA): 128 µg/mL (≈ 359 µM)
–	320 µg/mL (≈ 803 µM)	CC(C)c1ccccc1Nc1cc(C(F)(F)F)nc2cc(C(F)(F)F)ccc12 [Compound 12]	–
–	–	CC(=O)c1cccc(Nc2cc(C(F)(F)F)nc3cc(C(F)(F)F)ccc23)c1 [Compound 13]	MIC (Staphylococcus aureus, MRSA): > 128 µg/mL
–	> 16 µg/mL	FC(F)(F)c1ccc2c(Nc3ccccc3Cl)cc(C(F)(F)F)nc2c1 [Compound 15]	–
0.25 µg/mL (≈ 0.64 µM)	0.125 to 0.25 µg/mL (≈ 0.32 to 0.64 µM)	FC(F)(F)c1ccc2c(Nc3cccc(Cl)c3)cc(C(F)(F)F)nc2c1 [Compound 16]	–
0.12 µg/mL (≈ 0.307 µM)	0.125 to 0.25 µg/mL (≈ 0.32 to 0.64 µM)	FC(F)(F)c1ccc2c(Nc3ccc(Cl)cc3)cc(C(F)(F)F)nc2c1 [Compound 17]	–
–	–	Fc1cccc(Nc2cc(C(F)(F)F)nc3cc(C(F)(F)F)ccc23)c1 [Compound 18]	fold loss of potency (MIC) relative to the comparator: 16-64 fold
–	0.25 µg/mL (≈ 0.574 µM)	FC(F)(F)c1ccc2c(Nc3cccc(Br)c3)cc(C(F)(F)F)nc2c1 [Compound 19]	–
–	0.25 µg/mL (≈ 0.518 µM)	FC(F)(F)c1ccc2c(Nc3cccc(I)c3)cc(C(F)(F)F)nc2c1 [Compound 20]	–
0.12 to 0.25 µg/mL	0.125 to 0.25 µg/mL (≈ 0.319 to 0.637 µM)	Fc1ccc(Nc2cc(C(F)(F)F)nc3cc(C(F)(F)F)ccc23)cc1F [Compound 21]	–
–	> 16 µg/mL	OCc1cccc(Nc2cc(C(F)(F)F)nc3cc(C(F)(F)F)ccc23)c1 [Compound 23]	–

MIC [1]	MIC [2]	Structure (SMILES)	also measured
–	> 64 µg/mL	COc1cccc(Nc2cc(C(F)(F)F)nc3cc(C(F)(F)F)ccc23)c1 [Compound 25]	–
–	0.25 µg/mL (≈ 0.589 µM)	FC(F)(F)c1cccc(Nc2cc(C(F)(F)F)nc3cc(C(F)(F)F)ccc23)c1 [Compound 26]	fold increase in potency (MIC) relative to the comparator: 16 fold
–	8 µg/mL (≈ 18.2 µM)	FC(F)(F)Oc1cccc(Nc2cc(C(F)(F)F)nc3cc(C(F)(F)F)ccc23)c1 [Compound 27]	–
–	> 16 µg/mL	FC(F)(F)c1ccc2c(Nc3cccc(N4CCOCC4)c3)cc(C(F)(F)F)nc2c1 [Compound 29]	–
–	> 16 µg/mL	FC(F)(F)c1ccc2c(Nc3ccc(N4CCOCC4)cc3)cc(C(F)(F)F)nc2c1 [Compound 30]	–
–	0.5 to 1 µg/mL (≈ 1.13 to 2.27 µM)	FC(F)(F)Oc1ccc2c(Nc3ccc(Cl)c(Cl)c3)cc(C(F)(F)F)nc2c1 [Compound 32]	–
1 µg/mL (≈ 2.19 µM)	0.5 to 1 µg/mL (≈ 1.1 to 2.19 µM)	FC(F)(F)Oc1cccc(Nc2cc(C(F)(F)F)nc3cc(OC(F)(F)F)ccc23)c1 [Compound 33]	–
1 µg/mL (≈ 2.27 µM)	0.5 to 1 µg/mL (≈ 1.13 to 2.27 µM)	FC(F)(F)Oc1ccc2c(Nc3ccc(C(F)(F)F)cn3)cc(C(F)(F)F)nc2c1 [Compound 34]	–
–	2 µg/mL (≈ 5.17 µM)	COc1ccc2c(Nc3ccc(Cl)c(Cl)c3)cc(C(F)(F)F)nc2c1 [Compound 35]	–
–	> 32 µg/mL	COc1ccc2c(Nc3ccc(F)c(F)c3)cc(C(F)(F)F)nc2c1 [Compound 36]	–
–	> 32 µg/mL	COc1ccc2c(Nc3cccc(OC(F)(F)F)c3)cc(C(F)(F)F)nc2c1 [Compound 37]	–
–	32 µg/mL (≈ 82.6 µM)	COc1ccc2c(Nc3ccc(C(F)(F)F)cn3)cc(C(F)(F)F)nc2c1 [Compound 38]	–
–	0.5 µg/mL (≈ 1.13 µM)	FC(F)(F)Oc1cccc2c(Nc3ccc(Cl)c(Cl)c3)cc(C(F)(F)F)nc12 [Compound 42]	–
1 µg/mL (≈ 2.19 µM)	–	FC(F)(F)Oc1cccc(Nc2cc(C(F)(F)F)nc3c(OC(F)(F)F)cccc23)c1 [Compound 43]	–
–	1 µg/mL (≈ 2.27 µM)	FC(F)(F)Oc1cccc2c(Nc3ccc(C(F)(F)F)cn3)cc(C(F)(F)F)nc12 [Compound 44]	–
–	0.5 to 2 µg/mL (≈ 1.18 to 4.7 µM)	FC(F)(F)c1cc(Nc2ccc(Cl)c(Cl)c2)c2cccc(C(F)(F)F)c2n1 [Compound 45]	–
–	1 µg/mL (≈ 2.36 µM)	FC(F)(F)c1cccc(Nc2cc(C(F)(F)F)nc3c(C(F)(F)F)cccc23)c1 [Compound 46]	–
–	0.5 µg/mL (≈ 1.18 µM)	FC(F)(F)c1ccc(Nc2cc(C(F)(F)F)nc3c(C(F)(F)F)cccc23)nc1 [Compound 47]	–
–	2 µg/mL (≈ 5.11 µM)	FC(F)(F)c1ccc2c(Nc3cc(Cl)ccn3)cc(C(F)(F)F)nc2c1 [Compound 48]	fold loss of potency (MIC) relative to the comparator: 8 fold
–	> 32 µg/mL	FC(F)(F)c1ccc2c(Nc3ccc(C(F)(F)F)nc3)cc(C(F)(F)F)nc2c1 [Compound 49]	–

MIC [1]	MIC [2]	Structure (SMILES)	also measured
–	> 32 µg/mL	Cn1cc(Nc2cc(C(F)(F)F)nc3cc(C(F)(F)F)ccc23)ccc1=O [Compound 50]	–
–	> 128 µg/mL	Oc1ncccc1Nc1cc(C(F)(F)F)nc2cc(C(F)(F)F)ccc12 [Compound 51]	–
–	> 32 µg/mL	O=c1cc(Nc2cc(C(F)(F)F)nc3cc(C(F)(F)F)ccc23)cc[nH]1 [Compound 52]	–
>32 µg/mL	> 32 µg/mL	COC(=O)c1cc(Nc2cc(C(F)(F)F)nc3cc(C(F)(F)F)ccc23)ccn1 [Compound 54]	–
1 to 2 µg/mL	2 µg/mL (≈ 5.51 µM)	FC(F)(F)c1ccc2c(Nc3nccs3)cc(C(F)(F)F)nc2c1 [Compound 55]	–
>32 µg/mL	> 32 µg/mL	FC(F)(F)c1ccc2c(Nc3ncccn3)cc(C(F)(F)F)nc2c1 [Compound 56]	–
>32 µg/mL	> 32 µg/mL	OC1CCCN(c2cc(C(F)(F)F)nc3cc(C(F)(F)F)ccc23)C1 (centres unmarked) [Compound 58]	–
>32 µg/mL	> 32 µg/mL	FC(F)(F)c1ccc2c(N3CCOCC3)cc(C(F)(F)F)nc2c1 [Compound 59]	–
>32 µg/mL	> 32 µg/mL	FC(F)(F)c1ccc2c(NC[C@@H]3CCCN3)cc(C(F)(F)F)nc2c1 [Compound 60]	–
>32 µg/mL	> 32 µg/mL	FC(F)(F)c1ccc2c(Nc3cccc4[nH]ncc34)cc(C(F)(F)F)nc2c1 [Compound 61]	–
>32 µg/mL	> 32 µg/mL	CN1Cc2cc(Nc3cc(C(F)(F)F)nc4cc(C(F)(F)F)ccc34)ccc2C1=O [Compound 62]	–
>32 µg/mL	> 32 µg/mL	FC(F)(F)c1ccc2c(N3CCc4cccnc43)cc(C(F)(F)F)nc2c1 [Compound 63]	–
>32 µg/mL	> 32 µg/mL	O=C1Cc2cc(Nc3cc(C(F)(F)F)nc4cc(C(F)(F)F)ccc34)ccc2N1 [Compound 64]	–
>32 µg/mL	> 32 µg/mL	O[C@H]1C[C@H]2CC[C@@H](C1)C2Nc1cc(C(F)(F)F)nc2cc(C(F)(F)F)ccc12 (some centres unmarked) [Compound 65]	–
–	–	FC(F)(F)c1ccc(Nc2nc(C(F)(F)F)nc3cc(C(F)(F)F)ccc23)nc1 [Compound 91]	fold loss of potency (MIC) relative to the comparator: 8 fold
–	0.12 µg/mL (≈ 0.307 µM)	O=c1cc(C(F)(F)F)[nH]c2cc(C(F)(F)F)cc(Nc3ccc(F)cn3)c12 [Compound 112]	–
2 µg/mL (≈ 4.8 µM)	1 to 2 µg/mL (≈ 2.4 to 4.8 µM)	CN(C)c1ccc(Nc2cc(C(F)(F)F)cc3[nH]c(C(F)(F)F)cc(=O)c23)nc1 [Compound 113]	–
1 µg/mL (≈ 2.34 µM)	1 to 2 µg/mL (≈ 2.34 to 4.68 µM)	O=c1cc(C(F)(F)F)[nH]c2cc(C(F)(F)F)cc(-c3ccc(C(F)(F)F)nn3)c12 [Compound 114]	–
2 µg/mL (≈ 4.16 µM)	–	CN(C)S(=O)(=O)c1ccc(Nc2cc(C(F)(F)F)cc3[nH]c(C(F)(F)F)cc(=O)c23)nc1 [Compound 115]	–

Structure (SMILES)	MIC [1]	MIC [2]	also measured
O=c1cc(C(F)(F)F)[nH]c2c(OC(F)(F)F)cccc12 [Compound 5]	–	5 µg/mL (≈ 16.8 µM)	–
N#Cc1cccc(Nc2cc(C(F)(F)F)nc3cc(C(F)(F)F)ccc23)c1 [Compound 14]	>32 µg/mL	–	–
CSc1cccc(Nc2cc(C(F)(F)F)nc3cc(C(F)(F)F)ccc23)c1 [Compound 24]	0.25 to 0.5 µg/mL	–	–
FC(F)(F)c1ccc2c(Nc3ccc4c(c3)OCO4)cc(C(F)(F)F)nc2c1 [Compound 28]	>4 µg/mL	–	–
FC(F)(F)c1ccc2c(Nc3ccncc3)cc(C(F)(F)F)nc2c1 [Compound 53]	>32 µg/mL	–	MIC [3]: > 32 µg/mL
FC(F)(F)c1ccc2c(NC3CCCCC3)cc(C(F)(F)F)nc2c1 [Compound 57]	>16 µg/mL	–	MIC [3]: > 32 µg/mL
FC(F)(F)c1ccc2c(Nc3ccc(Cl)c(Cl)c3)nc(C(F)(F)F)nc2c1 [Compound 89]	0.5 µg/mL (≈ 1.17 µM)	–	fold loss of potency (MIC) relative to the comparator: 8 fold
FC(F)(F)Oc1cccc(Nc2nc(C(F)(F)F)nc3cc(C(F)(F)F)ccc23)c1 [Compound 90]	1 µg/mL (≈ 2.27 µM)	–	fold increase in potency (MIC) relative to the comparator: 8 fold
FC(F)(F)c1ccc(Nc2cc(N3CCNCC3)nc3cc(C(F)(F)F)ccc23)nc1 [Compound 102]	0.5 to 1 µg/mL	–	–
FC(F)(F)c1ccc(Nc2cc(N3CCNCC3)c3ccc(C(F)(F)F)cc3n2)nc1 [Compound 103]	4 to 8 µg/mL	–	–
FC(F)(F)c1ccc(Nc2cc(N3CCOCC3)c3ccc(C(F)(F)F)cc3n2)nc1 [Compound 105]	8 µg/mL (≈ 18.1 µM)	–	–
